Reference: patent USRE37781E1, “Substituted cyclic carbonyls and derivatives thereof useful as retroviral protease inhibitors” (DuPont Pharmaceuticals Company, priority 1991, dated 2002)
≈ marks a conversion by molar mass, not a printed value. Where two headings read alike, the source gives them in different places.

Legend:
Solubility studies = assay type: physicochemical
Protocol: For compounds of the present invention having reduceded water solubility it may be advantageous to prepare prodrugs to enhance the solubility and bioavailability of these compounds. […] Solubility studies were performed by mixing an excess of solid compound in water or aqueous medium for at least 4 hours. Solubility was assessed either visually, if a weighed amount clearly dissolved in a measured volume of solvent (method A), or by HPLC assay of filtrates of saturated solutions (method B).

HIV-1 protease = test: HIV-1 Protease Transgenic Mouse Model (cataract phenotype); conditions: for Cataract Density (% of control): Tg 61 mouse; for Delay in Cataract (relative to control): Tg 72 mouse
Method: The HIV protease inhibitory activity of the presently claimed compounds was measured in this animal system as a delay or prevention of the onset of cataract appearance in the test animals.
Plasmid Construction: The mammalian expression vector pMSG (Pharmacia) was modified by replacing the MMTV LTR promoter with the 412-bp Bgl II-BamHI mouse alpha A-cryatallin promoter fragment (Chepelinsky et al. Proc. Natl. Acad. Sci. USA, 1985, 82, 2334-2338). The SV40 early splice and polyadenylation signals were retained and this plasmid was renamed pCSV 19. A single chain, tethered dimeric form of the active HIV-1 protease gene (BAA; Cheng et al., Proc. Natl. Acad. Sci. USA, 1990, 87, 9660-9664 and Cheng et al., Gene, 1990, 87, 243-248) was modified for mammalian cell expression by replacing nucleotides 7 to 90 with [sequence]. The gene was cut with EcoRI and Hind III and after blunt-end repair cloned into the Sma I site of the pCSV 19, thus producing PCSV 19-BAA.
Construction of Transgenic Mice: 2.5 kb Hind III fragments from the pCSV 19-BAA and pCSV 19-BA*A* plasmids were isolated (modified from Sambrook at al., Molecular Cloning, A Laboratory Manual, 2nd Ed., 1989, Cold Spring Harbor Laboratory) and used for the construction of transgenic mice using the pronuclei injection method (Hogan et al., Manipulating the Mouse Embryo. A Laboratory Manual, 1986, Cold Spring Harbor Laboratory). Mice were screened for the HIV-1 protease transgene by either Southern blot or Polymerase Chain Reaction (PCR) methods. Mice of the FVB/N strain (Taketo et al., Proc. Natl. Acad Sci. USA, 1991, 88, 2065-2069) were used for the construction and breeding of these transgenic mice, and were originally obtained from Dr. Carl Hansen (NIH) and bred in our facility. Subsequently, the mice were purchased from Charles River Laboratory (Portage, Mich.).
Identification of Transgenic Mice: Southern blot analysis (Sambrook et al. vide supra) was performed on DNA purified from tail biopsies (Hogan et al. vide supra) using the 2.5 kb Hind III fragment from pCSV 19-BAA as the probe (^32P labeled). DNA for PCR was prepared from tail biopsies by overnight digestion with 0.5 mg of Proteinase K (Boehringer-Manheim GmbH) in 100 μl of water and 0.025% SDS. PCR primers specific for the mouse c-fos gene and the transgene's SV40 segment were used as an internal control in some samples. Each PCR reaction contained 1-2 μl of tail digest, 60 μg of each primer, 200 μM of Perkin Elmer Cetus dATP, dCTP, dGTP,TTP (buffered at pH 8.8) and up to 5 units of Perkin Elmer Cetus Ampli/Taq polymerase. The reactions were run on a Perkin Elmer DNA Thermal Cycler as follows: 1 min at 94° C., 3 min at 67° C. (2 sec extension/cycle) for 35 cycles. The PCR products were analyzed by gel electrophoresis (1% agarose,0.5 μg/ml of ethidium bromide), and tail samples with a 625 PCR fragment (SV40 specific) were considered positive for the transgene. Mice bearing the active HIV-1 protease transgene were also identified by their cataract phenotype.
Dosing Regimen: Compounds to be tested were pulverized by manual grinding with mortar and pestle. Just prior to dosing of mice, the compound was suspended in 0.25% methylcellulose/Tween 80 solution, homogenized in a manual Dounce homogenizer and sonicated for 10 min in a sonicating water bath. The volume of suspension was adjusted so that the amount of compound required for dosing one mouse was 0.1-0.2 mL. In order to maintain the required mg/kg dose, an average mouse weight for each group was determined twice a week and the amount of compound adjusted accordingly. Intraperitoneal (ip) and oral (po) dosing was performed using 25 G ⅝ in. injection and 20 G 1½ in. feeding needles, respectively. The dosing was performed twice a day (bid) and the doses were administered 6-8 h apart.

HIV protease = target: T1, HIV protease (Human immunodeficiency virus type 1 group M subtype B, UniProt P04585); test: biochemical; parameters: species or system HIV-1
T1 construct: plasmid containing HIV protease under the control of an inducible T7 promoter; made in house; host or cells: E. coli (inclusion bodies, T7 promoter)
Protocol: HIV Protease Inhibition Assay—Spectroscopic Method
Inclusion bodies were solubilized in 8M urea, 50 mM tris pH 8.0. Protease activity was recovered by dilution 20-fold into buffer containing 50 mM sodium acetate pH 5.5, 1 mM EDTA, 10% glycerol and 5% ethylene glycol. Enzyme was used at a final concentration of 1.0-10 ug/ml.
Stock solutions of 10 mM were prepared in DMSO.
All further dilutions were done in DMSO.

[1] = tested on: HIV(3B) or HIV(RF) in MT-2 cells; assay type: cell-based; parameters: scale not given here; conditions: Table E, whole cell infectivity assay
Protocol: HIV Low Multiplicity Assay
Materials: MT-2, a human T-cell line, was cultured in RPMI medium supplemented with 5% (v/v) heat inactivated fetal calf serum (FCS), L-glutamine and gentamycin (GIBCO). Human immunodeficiency virus strains HIV (3B) and HIV (RF) were propagated in H-9 cells in RPMI with 5% FCS. XTT, benzene-sulfonic acid, 3,3′-[1-[(phenylamino) carbonyl]-3,4-tetrazolium]bis (4-methoxy-6nitro)-, sodium salt, was obtained from Starks Associates, Inc.
Method: Test compounds were dissolved in dimethylsulfoxide to 5 mg/ml and serially diluted into RPMI medium to ten times the desired final concentration. MT-2 cells (5×10^4/0.1 mL) were added to each well of a 96 well culture plate and 0.02 mL of the appropriate test compound solution was added to the cells such that each compound concentration was present in two wells. The cells and compounds were allowed to sit for 30 minutes at room temperature. HIV(3B) or HIV(RF) (−5×10^5 plaque foaming units/mL) was diluted in medium and added to the cell and compound mixtures to give a multiplicity of infection of 0.01 plaque forming unit/cell. The mixtures were incubated for 7 days at 36° C., during which time the virus replicated and caused the death of unprotected cells. The percentage of cells protected from virus induced cell death was determined by the degree of metabolism of the tetrazolium dye, XTT. In living cells, XTT was metabolized to a colored formazan product which was quantitated spectrophotometrically at 450 nm. The amount of colored formazan was proportional to the number of cells protected from virus by the test compound. The concentration of compound protecting either 50% (IC50) or 90% (IC90) with respect to an uninfected cell culture was determined.

[2] = target: single-chain tethered dimer of HIV protease (Human immunodeficiency virus 1, UniProt P04585); test: biochemical; assay type: biochemical
[3] = Oral bioavailability studies in fasted beagle dogs; assay type: in vivo; conditions: for bioavailability: beagle, dog, plasma, po, excipient glycol, read-out: % Oral Bioavailability of 5U (Mean ± SE)
Protocol: Improved water solubility can result in increasing the extent of oral bioavailability. Oral bioavailability studies were performed in fasted beagle dogs. Compounds were dosed orally using a solution vehicle or the solid drug powder filled into hard gelatin capsules. Periodic blood samples were taken from each dog and plasma was separated. Plasma drug concentrations were determined using extraction and HPLC analysis. Generally, after the administration of 5U or its prodrugs 29A-E, the plasma concentrations of 5U were determined, rather than unchanged prodrug concentrations. […] Oral bioavailability is expressed as the percentage of the oral dose absorbed. […] Therefore, in order to attain improved oral bioavailability, 5U was administered using a solution with polyethylene glycol 400 or propylene glycol as the vehicle. […] Improved oral bioavailability was attained when the water soluble prodrugs were administered in the solid form, with no added excipients or solvents. […] The advantage of the water soluble prodrugs is especially clear at high doses. […] Samples were then extracted again and assayed for 5U concentration. […] Thus, plasma levels of both intact prodrug and hydrolysis product can be attained using these water soluble prodrugs.

HIV-1 (RF) in MT-2 cells = test: microbe, parasite or virus in culture; assay type: cell-based; conditions: Human immunodeficiency virus 1, MT2, HIV RNA assay, HIV-1 infected MT-2 cells; class symbols; read-out: IC90
Summary of the method: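 HIV-1 laboratory strains (RF, MN, IIIB) grown in H9 cells in RPMI 1640 with 5% FCS; infections in MT-2 cells. Viral RNA quantified by hybridization with biotinylated gag/pol capture probes on streptavidin plates and alkaline phosphatase-conjugated reporter probes; BH10 gag-pol in vitro transcripts serve as RNA standards.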

[4] = Hydrolysis of prodrugs to 5U in biological fluids in vitro; assay type: in vitro ADME; conditions: exposed to plasma or intestinal enzymes in vitro, 37° C.
Protocol: Compounds 29A-29E are hydrolyzed to parent compound 5U in biological fluids in vitro. This was shown as follows. Plasma was collected from rats, dogs, or human volunteer, and was used within 24 hours. […] After various times of incubation at 37° C., the hydrolysis reaction was quenched with the addition of an organic solvent. The organic solvent was used for extraction of 5U, and concentrations of 5U in the plasma aliquots were determined using HPLC after extraction. Concentrations of 5U were thus measured vs. time of incubation of the prodrug in plasma at 37° C. Similar studies were performed using a homogenate of rat intestinal tissue (10% w/v) as the hydrolysis medium. Results for in vitro hydrolysis of prodrug 29B in dog plasma and rat intestinal homogenate (10% w/v) are given in Table B. Results for in vitro hydrolysis of prodrug 29C in rat, dog and human plasma are given in Table C. […] Other salt forms of these compounds, such as prodrugs 29A and 29D, will be similar to their free acid or free base forms.

## CN(C)CC(=O)OCc1ccc(CN2C(=O)N(Cc3ccc(CO)cc3)[C@H](Cc3ccccc3)[C@H](O)[C@@H](O)[C@H]2Cc2ccccc2)cc1.Cl [Example 29D]
Solubility studies; water, method A (visually)
  Solubility: >200000 µg/mL

## O=C1N(CC2CC2)[C@H](Cc2ccccc2)[C@H](O)[C@@H](O)[C@@H](Cc2ccccc2)N1CC1CC1 [Example 1X]
HIV-1 protease; 5 mg/kg ip preg days 11-18
  Cataract Density (% of control): 39.8 % of control
HIV-1 protease; 15 mg/kg ip preg days 11-18
  Cataract Density (% of control): 28.8 % of control
HIV protease; Table 1a, read-out: Ki
  Ki: < 10 nM
[1]
  IC90: + + +

## O=C1N(Cc2ccc(CO)cc2)C(Cc2ccccc2)C(O)C(O)C(Cc2ccccc2)N1Cc1ccc(CO)cc1 (centres unmarked) [Example 5U]
HIV-1 protease; 100 mg/kg bid ip
  Delay in Cataract (relative to control): 5 days
HIV-1 protease; 400 mg/kg bid ip days 15-42
  Delay in Cataract (relative to control): 45 days
Solubility studies; thermodynamic from solid, water, method B (HPLC assay of filtrates of saturated solutions), read-out: Solubility
  Solubility: 10 µg/mL (≈ 17.6 µM)
[2]
  Ki: < 10 nM
[3]; administered as the solid powder
  oral bioavailability: low oral bioavailability
[3]; dose 40 mg/kg 5U eq.
  bioavailability: 5 ± 2%
[3]; dose 10-15 mg/kg 5U eq.
  bioavailability: 50 ± 20%
[3]; similar (high) dose in a non-aqueous vehicle
  oral bioavailability: relatively poor oral bioavailability
HIV-1 (RF) in MT-2 cells
  IC90: < 10 µg/mL

## O=C1N(Cc2ccccc2)C(Cc2ccccc2)C(O)C(O)C(Cc2ccccc2)N1Cc1ccccc1 (centres unmarked) [Example 1AQ]
HIV-1 protease; 60 mg/kg ip preg days 11-18
  Cataract Density (% of control): 46.6 % of control
HIV-1 protease; 85 mg/kg ip preg days 11-18, 17-18
  Cataract Density (% of control): 20.6 % of control
HIV protease; Ki
  Ki: < 10 nM
[1]
  IC90: + + +

## CN(C)CC(=O)OCc1ccc(CN2C(=O)N(Cc3ccc(COC(=O)CN(C)C)cc3)[C@H](Cc3ccccc3)[C@H](O)[C@@H](O)[C@H]2Cc2ccccc2)cc1.Cl [Example 29E]
[4]
  conversion of prodrug to parent 5U: readily convert to parent 5U
[3]; oral, plasma treated with NaOH
  AUC of intact esters (total of mono and bis ester) relative to that of 5U: approximately 2 fold

## CN(C)CC(=O)OCc1ccc(CN2C(=O)N(Cc3ccc(COC(=O)CN(C)C)cc3)[C@H](Cc3ccccc3)[C@H](O)[C@@H](O)[C@H]2Cc2ccccc2)cc1 [Example 29C]
[4]
  conversion of prodrug to parent 5U: readily convert to parent 5U
Solubility studies; 0.1M citric acid, method A (visually)
  Solubility: >20000 µg/mL

## O=C1N(Cc2ccc(COP(=O)(O)O)cc2)[C@H](Cc2ccccc2)[C@H](O)[C@@H](O)[C@@H](Cc2ccccc2)N1Cc1ccc(COP(=O)(O)O)cc1 [Example 29A]
Solubility studies
  Solubility: 2250 µg/mL (≈ 3100 µM)
